System: G. duodenalis BRIS/91/HEPU/1279
Experiment: Primary Giardia screen at 10 µM (live-cell imaging, automated counting)
Type: cell-based, Giardia duodenalis
Conditions: for % Inhibition n=1 24h / % Inhibition n=1 48h: first singlicate assay; for % Inhibition n=2 24h / % Inhibition n=2 48h: re-assessment
Procedure, shortened: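 Singlicate, 10 μM final, 0.2% DMSO; sealed chambers, 3% O2/5% CO2/N2. Counts by live-cell imaging at 24 h and 48 h. % growth vs vehicle, media background subtracted; Z' per plate.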

CCOC(=O)c1sc2ncnc(Nc3cn[nH]c3)c2c1C [SN00777183]
Average % Inhibition 24h: 0.0%
% Inhibition n=1 24h: 0.1%
% Inhibition n=2 24h: 0.0%
Average % Inhibition 48h: 30.8%
% Inhibition n=1 48h: 42.7%
% Inhibition n=2 48h: 18.9%

COc1ccc(C(=O)N2c3ccccc3NC(=O)CC2C)cc1OC (stereo not drawn) [SN00777269]
% Inhibition n=1 48h: 0.0%

CCN(CC)S(=O)(=O)c1ccc(Nc2ccn(CCc3ccccn3)n2)c([N+](=O)[O-])c1 [SN00777378]
Average % Inhibition 24h: 10.7%
% Inhibition n=1 24h: 21.3%
% Inhibition n=2 24h: 0.0%
Average % Inhibition 48h: 25.2%
% Inhibition n=1 48h: 39.2%
% Inhibition n=2 48h: 11.3%

COc1cccc(N2CCN(C(=O)c3ccc4noc(-c5ccccc5)c4c3)CC2)c1 [SN00777397]
Average % Inhibition 24h: 9.9%
% Inhibition n=1 24h: 17.2%
% Inhibition n=2 24h: 2.5%
Average % Inhibition 48h: 28.2%
% Inhibition n=1 48h: 56.5%
% Inhibition n=2 48h: 0.0%

O=C(c1ccccc1)N1CCN(C(=O)c2ccc3noc(-c4ccccc4)c3c2)CC1 [SN00777400]
% Inhibition n=1 48h: 15.8%

CC(=O)Nc1ccc(C(=O)OCc2cc(-c3cccs3)on2)s1 [SN00777515]
% Inhibition n=1 48h: 14.0%

Cc1nnc(NC(=O)c2ccc3c(=O)n4c(nc3c2)CCCCCC4)s1 [SN00777547]
% Inhibition n=1 48h: 37.7%

Cn1nc2c(c1NC(=O)c1cccc(NC(=O)C(C)(C)C)c1)CCC2 [SN00777576]
% Inhibition n=1 48h: 0.0%

COC(=O)c1cc(C(=O)Nc2c3c(nn2C)CCC3)cc([N+](=O)[O-])c1 [SN00777586]
% Inhibition n=1 48h: 12.1%

O=C(c1cc(C2CC2)nc2ccccc12)N1CC2CCC1C2 (stereo not drawn) [SN00777604]
% Inhibition n=1 48h: 18.4%

O=C(CN1C(=O)CC2(CCCCC2)C1=O)Nc1ccc([N+](=O)[O-])cc1 [SN00777618]
% Inhibition n=1 48h: 47.2%

Cc1cc(C2CCCN2Cc2cc(-c3ccco3)on2)on1 (stereo not drawn) [SN00777724]
% Inhibition n=1 48h: 35.3%

CCC(=O)N1CCCC1C1CCCN1Cc1cn2c(C)cccc2n1 (stereo not drawn) [SN00777763]
% Inhibition n=1 48h: 16.6%

O=c1n(Cc2ccc(F)cc2)nnn1-c1ccccc1 [SN00777772]
% Inhibition n=1 48h: 48.5%

O=C(NCCSc1ccc(Cl)cc1)c1cc(S(=O)(=O)N2CCOCC2)c[nH]1 [SN00777799]
% Inhibition n=1 48h: 7.9%

Cc1cccc(OCC(=O)N2CCN(Cc3nnsc3Cl)CC2)c1C [SN00777844]
% Inhibition n=1 48h: 35.2%

CCc1nc(CN2CCCN(C(=O)C3CCC3)CC2)cs1 [SN00777931]
% Inhibition n=1 48h: 3.9%

Cc1onc(-c2ccccc2)c1-c1nnc(CN2CCCN(CC(=O)NC(C)(C)C)CC2)o1 [SN00777957]
% Inhibition n=1 48h: 2.0%

O=C1C(=O)N(Cc2coc(-c3ccc(Cl)cc3)n2)C(=O)N1Cc1ccccc1 [SN00777999]
% Inhibition n=1 48h: 18.6%

CCN1C(=O)C(=O)N(Cc2coc(-c3ccc(C)cc3)n2)C1=O [SN00778011]
% Inhibition n=1 48h: 28.7%

CCCNC(=O)CN1CCN(c2nc3ccccn3c2[N+](=O)[O-])CC1 [SN00778045]
% Inhibition n=1 48h: 31.4%

Cn1cccc1C1CCCCCN1C(=O)CCSCc1nc2sc3c(c2c(=O)[nH]1)CCC3 (stereo not drawn) [SN00778065]
Average % Inhibition 24h: 0.2%
% Inhibition n=1 24h: 0.0%
% Inhibition n=2 24h: 0.4%
Average % Inhibition 48h: 38.7%
% Inhibition n=1 48h: 67.7%
% Inhibition n=2 48h: 9.8%

Cc1ccc(-c2nnn(CC(=O)N3CCCCCC3c3cccn3C)n2)cc1 (stereo not drawn) [SN00778086]
Average % Inhibition 24h: 2.1%
% Inhibition n=1 24h: 0.0%
% Inhibition n=2 24h: 4.1%
Average % Inhibition 48h: 28.3%
% Inhibition n=1 48h: 56.5%
% Inhibition n=2 48h: 0.0%

CCc1noc(C)c1C(=O)N1CCCN(Cc2csc(C)n2)CC1 [SN00778114]
% Inhibition n=1 48h: 29.4%

Cc1ccc(S(=O)(=O)N2CCCN(C(=O)c3c[nH]nc3-c3ccc(F)cc3)CC2)cc1 [SN00778123]
% Inhibition n=1 48h: 40.4%

CC(=O)N1CCCN(C(=O)c2cnn(C(C)(C)C)c2C)CC1 [SN00778131]
% Inhibition n=1 48h: 0.0%

CC(=O)N1CCCN(C(=O)c2cc(C3CC3)[nH]n2)CC1 [SN00778148]
% Inhibition n=1 48h: 1.1%

CCC1c2ccsc2CCN1C(=O)c1cc(-c2csc(C)n2)c[nH]1 (stereo not drawn) [SN00778239]
% Inhibition n=1 48h: 3.8%

CSc1ccc(-c2csc(CN3CCN(C(C)=O)CC3)n2)cc1 [SN00778360]
% Inhibition n=1 48h: 12.1%

O=C(CN1C(=O)NC2(CCc3ccccc32)C1=O)N1CCCC(c2nnc3ccccn23)C1 (stereo not drawn) [SN00778393]
% Inhibition n=1 48h: 0.0%

c1cnc(N2CCCN(c3nc4ccccc4o3)CC2)nc1 [SN00778442]
% Inhibition n=1 48h: 32.5%

Cc1nc(-c2ccccc2)c(C(=O)N2CCCN(S(=O)(=O)c3ccc(F)cc3)CC2)s1 [SN00778504]
% Inhibition n=1 48h: 9.7%

CCn1cc(CN2CCCN(C(=O)c3cc(C4CC4)on3)CC2)cn1 [SN00778709]
% Inhibition n=1 48h: 0.0%

Cc1ccc(-c2nc(C)sc2CC(=O)N2CCN(Cc3nc(N)c4ccccc4n3)CC2)cc1 [SN00778718]
% Inhibition n=1 48h: 9.0%

c1ccc(-c2cc(CN3CCOC(Cn4cncn4)C3)on2)cc1 (stereo not drawn) [SN00778747]
% Inhibition n=1 48h: 6.8%

CN(C)C(=O)CN1CCCN(Cc2ncc(C(C)(C)C)o2)CC1 [SN00778763]
% Inhibition n=1 48h: 1.9%

Cc1nc(CN2CCCNCC2)oc1C [SN00778765]
% Inhibition n=1 48h: 0.0%

Cc1ccc(S(=O)(=O)C2(C(=O)Nc3cn[nH]c3)CCC2)cc1 [SN00778835]
% Inhibition n=1 48h: 0.0%

Cc1nn(CCC(=O)Nc2cccc(F)c2)c(=O)c2noc(C)c12 [SN00778869]
Average % Inhibition 24h: 0.0%
% Inhibition n=1 24h: 0.0%
% Inhibition n=2 24h: 0.0%
Average % Inhibition 48h: 40.9%
% Inhibition n=1 48h: 21.9%
% Inhibition n=2 48h: 59.9%

CCOC(=O)N1CCN(C(=O)c2nn(-c3ccccc3)c3c2CCC3)CC1 [SN00778954]
Average % Inhibition 24h: 6.2%
% Inhibition n=1 24h: 12.5%
% Inhibition n=2 24h: 0.0%
Average % Inhibition 48h: 36.1%
% Inhibition n=1 48h: 38.8%
% Inhibition n=2 48h: 33.3%

Cc1noc2ncc(C(=O)N3CCN(C(C)C)CC3)cc12 [SN00779057]
% Inhibition n=1 48h: 0.0%

O=C1CC(C(=O)N2CCN(S(=O)(=O)c3ccc(Br)cc3)CC2)c2ccc(F)cc2N1 (stereo not drawn) [SN00779129]
% Inhibition n=1 48h: 0.0%

CCCn1c(=O)c2c(nc3n2CCN3c2ccc(CC)cc2)n(C)c1=O [SN00779194]
% Inhibition n=1 48h: 0.0%

Cn1c(=O)n(CC(=O)C(C)(C)C)c(=O)c2c1nc1oc(C(C)(C)C)cn12 [SN00779257]
% Inhibition n=1 48h: 18.6%

Cn1cc(C(=O)N2CCCC2C2CCCCC2)ccc1=O (stereo not drawn) [SN00779264]
% Inhibition n=1 48h: 13.1%

O=[N+]([O-])c1ncn(Cc2nc(-c3ccc(C(F)(F)F)cc3)no2)n1 [SN00779286]
% Inhibition n=1 48h: 16.5%

O=C(Nc1cccnc1)C1=NN(Cc2ccccc2)C(=O)CC1 [SN00779378]
% Inhibition n=1 48h: 15.0%

CN(C)c1ccc(NC(=O)C2=NN(Cc3ccc(F)cc3)C(=O)CC2)cc1 [SN00779392]
% Inhibition n=1 48h: 8.0%

CSCCC(NS(=O)(=O)c1ccc(C)cc1)C(=O)Nc1nc(C)c(-c2ccccn2)s1 (stereo not drawn) [SN00779415]
% Inhibition n=1 48h: 0.0%

Cc1[nH]c(=O)sc1S(=O)(=O)N1CCN(c2ccccc2[N+](=O)[O-])CC1 [SN00779481]
% Inhibition n=1 48h: 0.0%

O=C(Cc1csc(Cc2ccccn2)n1)Nc1ccc2nc(N3CCOCC3)sc2c1 [SN00779496]
% Inhibition n=1 48h: 2.9%

CC(NC(=O)Cc1csc(Cc2ccccn2)n1)c1ccc(F)cc1 (stereo not drawn) [SN00779507]
% Inhibition n=1 48h: 0.0%

Cc1c(C(=O)N2CCOCC2C)nnn1-c1cccc2c1CCN(Cc1ccccc1)C2 (stereo not drawn) [SN00779590]
% Inhibition n=1 48h: 5.5%

CCc1nc(C)c2c(C)c(C(=O)N3CCN(c4ncccn4)CC3)sc2n1 [SN00779630]
% Inhibition n=1 48h: 22.3%

CCc1nc(C)c2c(C)c(C(=O)N3CCN(Cc4ccc(OC)c(F)c4)CC3)sc2n1 [SN00779632]
% Inhibition n=1 48h: 14.8%

O=S(=O)(c1ccc(Cl)cc1)N1CCC(c2nc(-c3c(Cl)cccc3Cl)no2)CC1 [SN00779695]
% Inhibition n=1 48h: 11.2%

COc1cc(-c2noc(-c3cc(C4CC4)n[nH]3)n2)cc(OC)c1OC [SN00779739]
% Inhibition n=1 48h: 13.7%

O=C(c1ccc2nncn2c1)N1CCc2[nH]nc(C(F)(F)F)c2C1 [SN00779777]
% Inhibition n=1 48h: 3.6%

CCc1ncncc1C(=O)N1CCN(Cc2nc(C(C)C)no2)CC1 [SN00779817]
% Inhibition n=1 48h: 26.6%

CCN(CC)C(=O)C1CSCN1C(=O)c1cc(C)nc2c1nc1n2CCCCC1 (stereo not drawn) [SN00779876]
Average % Inhibition 24h: 1.0%
% Inhibition n=1 24h: 1.9%
% Inhibition n=2 24h: 0.0%
Average % Inhibition 48h: 31.1%
% Inhibition n=1 48h: 62.1%
% Inhibition n=2 48h: 0.0%

O=c1c2ccsc2ncn1Cc1noc(-c2ccsc2)n1 [SN00779979]
% Inhibition n=1 48h: 0.0%

Cc1ccc(C)c(NC(=O)Cc2nc(Cn3cnc([N+](=O)[O-])c3)cs2)c1 [SN00779996]
Average % Inhibition 24h: 8.5%
% Inhibition n=1 24h: 0.0%
% Inhibition n=2 24h: 16.9%
Average % Inhibition 48h: 59.9%
% Inhibition n=1 48h: 47.9%
% Inhibition n=2 48h: 71.9%

O=C1CCCN1CC1CCCCN1c1cc(Cl)c(C(F)(F)F)cc1[N+](=O)[O-] (stereo not drawn) [SN00780038]
% Inhibition n=1 48h: 9.6%

CN1C(=O)CC(C(=O)NNC(=O)COc2ccccc2-c2ccccc2)C1c1cccnc1 (stereo not drawn) [SN00780071]
% Inhibition n=1 48h: 9.4%

O=C(c1ccc[nH]c1=S)N1CCCC(CN2CCN(c3ccccn3)CC2)C1 (stereo not drawn) [SN00780166]
% Inhibition n=1 48h: 0.0%

Cc1cc(N2C(=O)C(O)=C(C(=O)c3ccc(Cl)cc3)C2c2ccc([N+](=O)[O-])cc2)no1 (stereo not drawn) [SN00780175]
Average % Inhibition 24h: 6.4%
% Inhibition n=1 24h: 12.8%
% Inhibition n=2 24h: 0.0%
Average % Inhibition 48h: 29.6%
% Inhibition n=1 48h: 59.1%
% Inhibition n=2 48h: 0.0%

COc1ccc(OC)c(C2C(C(=O)c3ccco3)=C(O)C(=O)N2c2cc(C)on2)c1 (stereo not drawn) [SN00780182]
% Inhibition n=1 48h: 21.6%

Source: publication PMC9775191, “A Subset Screen of the Compounds Australia Scaffold Library Identifies 7-Acylaminodibenzoxazepinones as Potent and Selective Hits for Anti-Giardia Drug Discovery” (Biomedicines, 2022)
